Laboratory results taken from PubChem BioAssay AID1918958 (Molecular Pharmacology Branch, DTP, NCI, 2023).

Tested on: NCI-H196 complex spheroid viability
Assay: Anticancer human tumor NCI-H196 cell line growth inhibition [LSD1];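 further: spheroids exposed to agents for 7 days before readout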;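 on viability, T/C: 100% = DMSO vehicle control viability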
Conditions: for IC50: curve of first compound; for viability, T/C: stronger effect = lower value
Method in brief: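 Complex spheroids of tumor cells with HUVEC and human MSCs, exposed to iadademstat combined with other agents. Each agent tested in half-log steps from near clinical Cmax (else 10 microM top), DMSO ≤0.25%.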

[1] = second compound 0.1 µM, first compound 0.000316 µM
[2] = second compound 0.1 µM, first compound 0.001 µM
[3] = second compound 0.1 µM, first compound 0.00316 µM
[4] = second compound 0.1 µM, first compound 0.01 µM
[5] = second compound 0.1 µM, first compound 0.0316 µM
[6] = second compound 0.1 µM, first compound 0.1 µM
[7] = second compound 0.316 µM, first compound 0.000316 µM
[8] = second compound 0.316 µM, first compound 0.001 µM
[9] = second compound 0.316 µM, first compound 0.00316 µM
[10] = second compound 0.316 µM, first compound 0.01 µM
[11] = second compound 0.316 µM, first compound 0.0316 µM
[12] = second compound 0.316 µM, first compound 0.1 µM
[13] = second compound 1 µM, first compound 0.000316 µM
[14] = second compound 1 µM, first compound 0.001 µM
[15] = second compound 1 µM, first compound 0.00316 µM
[16] = second compound 1 µM, first compound 0.01 µM
[17] = second compound 1 µM, first compound 0.0316 µM
[18] = second compound 1 µM, first compound 0.1 µM
[19] = second compound 3.16 µM, first compound 0.000316 µM
[20] = second compound 3.16 µM, first compound 0.001 µM
[21] = second compound 3.16 µM, first compound 0.00316 µM
[22] = second compound 3.16 µM, first compound 0.01 µM
[23] = second compound 3.16 µM, first compound 0.0316 µM
[24] = second compound 3.16 µM, first compound 0.1 µM
[25] = second compound 10 µM, first compound 0.000316 µM
[26] = second compound 10 µM, first compound 0.001 µM
[27] = second compound 10 µM, first compound 0.00316 µM
[28] = second compound 10 µM, first compound 0.01 µM
[29] = second compound 10 µM, first compound 0.0316 µM
[30] = second compound 10 µM, first compound 0.1 µM

Compound | IC50 (second compound 0.1 µM) [µM] | IC50 (second compound 0.316 µM) [µM] | IC50 (second compound 1 µM) [µM] | IC50 (second compound 3.16 µM) [µM] | IC50 (second compound 10 µM) [µM] | viability, T/C [3] [%] | viability, T/C [4] [%] | viability, T/C [5] [%] | viability, T/C [6] [%] | viability, T/C [9] [%] | viability, T/C [10] [%] | viability, T/C [11] [%] | viability, T/C [12] [%] | viability, T/C [15] [%] | viability, T/C [16] [%] | viability, T/C [17] [%] | viability, T/C [18] [%] | viability, T/C [21] [%] | viability, T/C [22] [%] | viability, T/C [23] [%] | other results
CC(C)CC(NC(=O)C(Cc1ccccc1)NC(=O)c1cnccn1)B(O)O (stereo not given) + NC1CCC(NC2CC2c2ccccc2)CC1 | 0.000529 | 0.000555 | 0.000572 | 0.000508 | 0.000511 | 4.44 | 3.35 | 1.92 | 1.52 | 3.34 | 2.71 | 2.22 | 0.68 | 3.82 | 2.43 | 2.03 | 0.58 | 3.18 | 2.05 | 2.04 | viability, T/C [1]: 84.1%; viability, T/C [2]: 7.65%; viability, T/C [7]: 87.9%; viability, T/C [8]: 10.3%; viability, T/C [13]: 95.9%; viability, T/C [14]: 6.67%; viability, T/C [19]: 80.8%; viability, T/C [20]: 5.93%; viability, T/C [24]: 0.46%; viability, T/C [25]: 82.5%; viability, T/C [26]: 4.35%; viability, T/C [27]: 2.41%; viability, T/C [28]: 1.45%; viability, T/C [29]: 0.95%; viability, T/C [30]: 0.47%
CC(C)CC(NC(=O)CNC(=O)c1cc(Cl)ccc1Cl)B1OC(=O)CC(CC(=O)O)(C(=O)O)O1 (stereo not given) + NC1CCC(NC2CC2c2ccccc2)CC1 | 0.0186 | 0.0195 | 0.0187 | 0.0215 | 0.0201 | 102 | 78 | 26.1 | 8.24 | 101 | 78.5 | 29.5 | 8.69 | 120 | 71.9 | 31.4 | 7.57 | 102 | 85.8 | 31.9 | viability, T/C [1]: 107%; viability, T/C [2]: 109%; viability, T/C [7]: 106%; viability, T/C [8]: 106%; viability, T/C [13]: 103%; viability, T/C [14]: 105%; viability, T/C [19]: 99.5%; viability, T/C [20]: 107%; viability, T/C [24]: 9.23%; viability, T/C [25]: 102%; viability, T/C [26]: 104%; viability, T/C [27]: 105%; viability, T/C [28]: 75.7%; viability, T/C [29]: 33%; viability, T/C [30]: 6.12%
COc1cc(Nc2ncc3c(n2)-c2ccc(Cl)cc2C(c2c(F)cccc2OC)=NC3)ccc1C(=O)O + NC1CCC(NC2CC2c2ccccc2)CC1 | > 1 | > 1 | > 1 | > 1 | > 1 | 94.8 | 107 | 122 | 116 | 99.2 | 103 | 112 | 131 | 94.4 | 108 | 102 | 113 | 95.7 | 105 | 110 | viability, T/C (second compound 0.1 µM, first compound 0.316 µM): 134%; viability, T/C (second compound 0.1 µM, first compound 1 µM): 121%; viability, T/C (second compound 0.316 µM, first compound 0.316 µM): 123%; viability, T/C (second compound 0.316 µM, first compound 1 µM): 138%; viability, T/C (second compound 1 µM, first compound 0.316 µM): 126%; viability, T/C (second compound 1 µM, first compound 1 µM): 119%; viability, T/C [24]: 103%; viability, T/C (second compound 3.16 µM, first compound 0.316 µM): 128%; viability, T/C (second compound 3.16 µM, first compound 1 µM): 126%; viability, T/C [27]: 92.2%; viability, T/C [28]: 107%; viability, T/C [29]: 97.6%; viability, T/C [30]: 116%; viability, T/C (second compound 10 µM, first compound 0.316 µM): 125%; viability, T/C (second compound 10 µM, first compound 1 µM): 113%
